# Source: ChEMBL document CHEMBL1148236, “Synthesis and structure-activity relationship of 3-arylbenzoxazines as selective estrogen receptor beta agonists” (Bioorg Med Chem Lett, 2004)
# Columns and labels:
# Estrogen receptor beta [1] = molecular target: T1, Estrogen receptor beta (Homo sapiens, UniProt Q92731)
# Description: Binding affinity towards estrogen receptor beta by [3H]17-beta-estradiol displacement.
# Estrogen receptor [2] = molecular target: T2, Estrogen receptor (Homo sapiens, UniProt P03372)
# T2 sequence (P03372 whole entry): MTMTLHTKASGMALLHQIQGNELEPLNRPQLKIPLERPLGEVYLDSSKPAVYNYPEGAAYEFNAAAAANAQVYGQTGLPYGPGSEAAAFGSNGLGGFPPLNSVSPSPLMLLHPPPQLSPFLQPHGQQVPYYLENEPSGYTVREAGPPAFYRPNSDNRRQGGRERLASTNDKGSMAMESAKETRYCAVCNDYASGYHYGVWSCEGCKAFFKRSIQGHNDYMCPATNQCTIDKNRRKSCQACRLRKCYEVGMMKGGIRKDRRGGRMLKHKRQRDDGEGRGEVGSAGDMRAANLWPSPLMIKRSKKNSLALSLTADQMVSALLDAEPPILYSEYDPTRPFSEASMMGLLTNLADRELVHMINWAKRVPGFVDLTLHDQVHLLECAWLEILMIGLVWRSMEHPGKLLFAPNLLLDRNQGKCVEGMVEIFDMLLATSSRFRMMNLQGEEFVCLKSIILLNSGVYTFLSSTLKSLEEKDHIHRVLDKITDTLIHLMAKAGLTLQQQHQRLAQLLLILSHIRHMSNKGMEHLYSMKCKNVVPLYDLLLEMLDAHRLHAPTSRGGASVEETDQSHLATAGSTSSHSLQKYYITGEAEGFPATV
# Description: Ability to activate estrogen receptor 1-mediated transcription.
# Estrogen receptor beta [3] = molecular target: T1, Estrogen receptor beta; remark: listed apart in the source
# Description: Ability to activate estrogen receptor 2-mediated transcription.
# Estrogen receptor [4] = molecular target: T2, Estrogen receptor; remark: listed apart in the source
# Description: Binding affinity towards estrogen receptor alpha by [3H]17-beta-estradiol displacement.
# T1 sequence (Q92731 whole entry): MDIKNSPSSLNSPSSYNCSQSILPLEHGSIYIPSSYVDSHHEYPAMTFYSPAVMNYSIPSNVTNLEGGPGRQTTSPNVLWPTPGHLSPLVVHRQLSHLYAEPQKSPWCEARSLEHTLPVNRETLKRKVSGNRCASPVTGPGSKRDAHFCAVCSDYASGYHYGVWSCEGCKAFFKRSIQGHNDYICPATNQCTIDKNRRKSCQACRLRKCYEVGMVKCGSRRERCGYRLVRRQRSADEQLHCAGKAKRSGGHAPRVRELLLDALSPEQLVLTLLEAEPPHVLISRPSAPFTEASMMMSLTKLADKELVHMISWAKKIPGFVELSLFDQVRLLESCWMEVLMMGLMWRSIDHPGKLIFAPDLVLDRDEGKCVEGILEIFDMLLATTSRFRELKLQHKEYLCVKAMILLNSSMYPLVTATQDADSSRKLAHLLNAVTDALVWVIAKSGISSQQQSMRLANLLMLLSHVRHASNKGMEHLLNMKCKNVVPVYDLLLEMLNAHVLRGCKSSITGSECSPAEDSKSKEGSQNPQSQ
Compound,IC50 (Estrogen receptor beta [1]) [nM],EC50 (Estrogen receptor [2]) [nM],EC50 (Estrogen receptor beta [3]) [nM],IC50 (Estrogen receptor [4]) [nM]
CCC1Oc2cc(O)cc(C)c2N=C1c1ccc(O)c(Br)c1 (centres undefined),90,170,8,180
CCC1Oc2cc(O)ccc2N=C1c1ccc(O)cc1 (centres undefined),200,59,7,850
Oc1ccc(C2=Nc3ccc(O)cc3OC2)cc1,2900,6900,160,16000
CC1(C)Oc2cc(O)ccc2N=C1c1ccc(O)cc1,5600,3100,140,8600
"CC1Oc2cc(O)cc(O)c2N=C1c1ccc(O)cc1 (single isomer, unassigned)",240,140,50,2800
CCC1Oc2cc(O)cc(O)c2N=C1c1ccc(O)c(Br)c1 (centres undefined),1100,2000,180,5300
Oc1ccc2c(c1)CCC1Oc3cc(O)ccc3N=C21 (centres undefined),2600,12000,240,6000
CC1Oc2cc(O)ccc2N=C1c1ccc(O)cc1 (centres undefined),330,64,30,1700
"CC1Oc2cc(O)cc(O)c2N=C1c1ccc(O)cc1 (single isomer, unassigned; enantiomer B)",1100,290,74,6300
CCC1Oc2cc(O)cc(O)c2N=C1c1ccc(O)cc1 (centres undefined),120,170,26,1200
CC1Oc2cc(O)cc(O)c2N=C1c1ccc(O)cc1 (stereo in doubt; 4i),310,150,47,2900
CC1(C)Oc2cc(O)cc(O)c2N=C1c1ccc(O)c(Br)c1,1700,1400,120,6000
Oc1ccc(C2=Nc3c(O)cc(O)cc3OC2)cc1,2800,1800,270,33000
Oc1ccc2c(c1)CC1Oc3cc(O)ccc3N=C21 (centres undefined),1400,900,77,5600
CCCC1Oc2cc(O)ccc2N=C1c1ccc(O)cc1 (centres undefined),320,1700,18,1700
Cc1cc(O)cc2c1N=C(c1ccc(O)c(Br)c1)C(C)O2 (centres undefined),90,46,16,320
